Reference: US20260184710A1, “CASITAS B-LINEAGE LYMPHOMA PROTOONCOGENE B (CBL-B) DEGRADING COMPOUNDS AND ASSOCIATED METHODS OF USE” (Arvinas Operations, Inc., priority 2022, published 2026)

Experiments:
[1] = molecular target: T1, Cbl-b (Homo sapiens, UniProt Q13191); assay: Cbl-b Degradation Method A (FACS, anti-Cbl-b antibody staining); type: cell-based; conditions: Cbl-b-HiBit KI Jurkat Cells, incubated at least 20 hours; for DC50: half maximal degradation, read-out: Cbl-b Degredation Method A IC50; for Dmax: Jurkat, maximum degradation observed, read-out: Cbl-b Degredation Method A Dmax (%)
T1 construct: Cbl-b-HiBit KI Jurkat Cells were purchased from Promega; host or cells: Cbl-b-HiBiT knock-in Jurkat cells
Experimental: Cbl-b Degradation Method A
Cbl-b-HiBit KI Jurkat Cells were purchased from Promega, and cell media consisted of RPMI 1640 with 10% FBS and 1% pen/strep. The cells were counted, measured for viability, and 100 μL of the cell solution was into 96 well flat bottom plates at a ratio of 290,000 cells per 100 μL. Compounds were dissolved in DMSO to make a 10 mM stock solution, which was diluted with cell media. 100 μL of the diluted compound mixture was added to the wells. The plate was incubated for at least 20 hours at 37° C. and 5% CO2. After incubation, the plate was shaken at 700-750 RMP for 15-30 minutes to ensure cells were removed from the wells. The wells were transferred to a 96-well v-bottom plate and spun for 2200 RPM for 3 minutes. The supernatant was removed, cells re-suspended in 100 μL of the fixative, and subsequently incubated at room temperature for 15 minutes. Afterwards, 150 μL of DPBS was added to each well, and the cells were centrifuged at 2500 RPM for 3 minutes. The supernatant was removed and the plate was chilled on ice for 2-3 minutes. While still on the ice, 100 μL of Perm III was added to each well, the wells mixed, and subsequently left on the ice for another 15 minutes. Afterwards, the plate was removed from the ice, 150 μL of DBPS was added to each well, and the cells centrifuged at 2700 RPM for 3 minutes. The supernatant was removed, and an additional 200 μL of was DPBS was added to each well, followed by centrifuging at 2700 RPM for 3 minutes, after which the supernatant was removed. The anti-Cbl-b antibody was diluted 1:200 in 1× Perm Wash buffer and 50 μL of the antibody mixture was added to each well and mixed. After addition, the plate was incubated for 35-45 minutes at room temperature. After incubation, 200 μL of DPBS was added to each wells, and the plate centrifuged at 2700 RPM for 3 minutes, followed by the removal of the supernatant. The washing step was repeated by adding 200 μL of DPBS to each wells followed by centrifuge at 2700 RPM for 3 minutes and removal of the supernatant. The a-Rabbit-AF488 antibody was diluted 1:1000 in Perm Wash buffer, 50 μL of the dilution added to each well, and mixed. After mixing, the plate was incubated for 30 minutes at room temperature in the dark. Subsequently, the supernatant was removed, and 200 μL of DBPS added to the cells, which were then centrifuged at 2900 RPM for 4 minutes. The supernatant was removed, and an additional 95 μL of DBPS was added to the wells and mixed. The cells were then transferred to a round bottom polypropylene plate and analyzed using FACS with the parameters below:
The concentration of an exemplary compound that leads to half maximal degradation (DC50) as well as the maximum degradation observed (Dmax, conventionally expressed as a percentage of control) is shown below in Table 2.

[2] = molecular target: T1, Cbl-b; assay: Cbl-b Degradation Method B (Nano-Glo HiBiT lytic detection); type: cell-based; conditions: Cbl-b-HiBit KI Jurkat Cells, incubated at least 6-24 hours; half maximal degradation; read-out: Cbl-b Degredation Method B IC50
Outline: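 An 11-point, 3-fold compound dilution was applied for 6-24 hours to Jurkat cells carrying HiBiT-tagged endogenous Cbl-b. Lytic HiBiT luminescence quantified residual protein. Outputs are DC50 and Dmax relative to DMSO control.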

T1 sequence (Q13191 whole entry): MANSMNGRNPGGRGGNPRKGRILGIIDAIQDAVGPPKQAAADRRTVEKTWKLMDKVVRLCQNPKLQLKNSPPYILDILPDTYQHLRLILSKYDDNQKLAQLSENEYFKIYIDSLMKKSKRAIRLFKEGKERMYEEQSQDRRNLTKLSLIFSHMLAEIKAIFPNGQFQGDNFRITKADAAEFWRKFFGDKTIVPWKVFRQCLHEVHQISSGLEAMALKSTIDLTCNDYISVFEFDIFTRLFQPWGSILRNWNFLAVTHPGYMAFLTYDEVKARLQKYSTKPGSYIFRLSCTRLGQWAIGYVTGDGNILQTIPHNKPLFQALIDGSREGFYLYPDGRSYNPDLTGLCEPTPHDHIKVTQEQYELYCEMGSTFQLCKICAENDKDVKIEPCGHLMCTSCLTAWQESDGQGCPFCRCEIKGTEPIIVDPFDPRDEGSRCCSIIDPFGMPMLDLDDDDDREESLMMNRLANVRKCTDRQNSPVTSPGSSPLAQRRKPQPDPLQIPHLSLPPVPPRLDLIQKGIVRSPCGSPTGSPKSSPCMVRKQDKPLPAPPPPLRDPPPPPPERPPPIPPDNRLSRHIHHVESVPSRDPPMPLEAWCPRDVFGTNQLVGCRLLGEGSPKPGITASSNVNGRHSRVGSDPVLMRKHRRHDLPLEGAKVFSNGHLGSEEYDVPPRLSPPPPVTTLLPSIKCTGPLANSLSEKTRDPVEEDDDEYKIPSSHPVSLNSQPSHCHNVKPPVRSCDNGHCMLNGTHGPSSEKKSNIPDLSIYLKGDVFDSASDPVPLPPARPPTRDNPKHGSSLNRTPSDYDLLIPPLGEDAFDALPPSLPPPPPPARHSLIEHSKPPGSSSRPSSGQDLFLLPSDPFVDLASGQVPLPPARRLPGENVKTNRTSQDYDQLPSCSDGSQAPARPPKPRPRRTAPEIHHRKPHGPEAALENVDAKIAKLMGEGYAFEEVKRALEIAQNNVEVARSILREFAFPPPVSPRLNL

Row | DC50 [1] [nM] | Dmax [1] [%] | DC50 [2] [nM] | Compound
1 | < 5 | > 70 | – | Cn1cnnc1CC1(c2cccc(N3Cc4c(cc(CN5CC6(CCN(C[C@H]7CC[C@H](OC8CCN(c9ccc%10c(c9F)CN(C9CCC(=O)NC9=O)C%10=O)CC8)CC7)CC6)C5)cc4C(F)(F)F)C3=O)c2)COC1 (stereo partly shown) [Example 6, 3-[4-fluoro-1-oxo-5-(4-{[(1r, 4r)-4-[(2-{[2-(3-{3-[(4-methyl-4H-1,2,4-triazol-3-yl)methyl]oxetan-3-yl}phenyl)-3-oxo-7-(trifluoromethyl)-2,3-dihydro-1H-isoindol-5-yl]methyl}-2,7-diazaspiro[3.5]nonan-7-yl)methyl]cyclohexyl]oxy}piperidin-1-yl)-2,3-dihydro-1H-isoindol-2-yl]piperidine-2,6-dione]
2 | < 5 | > 70 | – | Cn1cnnc1CC1(c2cccc(N3Cc4c(cc(N5CC6(CCN(C[C@H]7CC[C@H](OC8CCN(c9ccc%10c(c9F)CN(C9CCC(=O)NC9=O)C%10=O)CC8)CC7)CC6)C5)cc4C(F)(F)F)C3=O)c2)COC1 (stereo partly shown) [Example 7, 3-[4-fluoro-1-oxo-5-(4-{[(1r, 4r)-4-({2-[2-(3-{3-[(4-methyl-4H-1,2,4-triazol-3-yl)methyl]oxetan-3-yl}phenyl)-3-oxo-7-(trifluoromethyl)-2,3-dihydro-1H-isoindol-5-yl]-2,7-diazaspiro [3.5]nonan-7-yl}methyl)cyclohexyl]oxy}piperidin-1-yl)-2,3-dihydro-1H-isoindol-2-yl]piperidine-2,6-dione]
3 | 5 to 50 | < 35 | – | Cn1cnnc1CC1(c2cccc(N3Cc4c(cc(CN5CC6(CCN(CC7CCN(c8ccc9c(c8F)CN(C8CCC(=O)NC8=O)C9=O)CC7)CC6)C5)cc4C(F)(F)F)C3=O)c2)COC1 (stereo not shown) [Example 25, 3-(4-fluoro-5-{4-[(2-{[2-(3-{3-[(4-methyl-4H-1,2,4-triazol-3-yl)methyl]oxetan-3-yl}phenyl)-3-oxo-7-(trifluoromethyl)-2,3-dihydro-1H-isoindol-5-yl]methyl}-2,7-diazaspiro[3.5]nonan-7-yl)methyl]piperidin-1-yl}-1-oxo-2,3-dihydro-1H-isoindol-2-yl)piperidine-2,6-dione]
4 | < 5 | > 70 | – | Cn1cnnc1CC1(c2cccc(N3Cc4c(cc(CN5CCCC(N6CCC(CN7CCC(CN8CCN(c9ccc%10c(c9)C(=O)N(C9CCC(=O)NC9=O)C%10=O)CC8)CC7)CC6)C5)cc4C(F)(F)F)C3=O)c2)COC1 (stereo not shown) [Example 109, 2-(2,6-dioxopiperidin-3-yl)-5-[4-({1-[(1′-{[2-(3-{3-[(4-methyl-4H-1,2,4-triazol-3-yl)methyl]oxetan-3-yl}phenyl)-3-oxo-7-(trifluoromethyl)-2,3-dihydro-1H-isoindol-5-yl]methyl}-[1,3′-bipiperidin]-4-yl)methyl]piperidin-4-yl}methyl)piperazin-1-yl]-2,3-dihydro-1H-isoindole-1,3-dione]
5 | 5 to 50 | 35 to 70 | – | Cn1cnnc1CC1(c2cccc(N3Cc4c(cc(N5CC(CC6CN(c7ccc8c(c7)C(=O)N(C7CCC(=O)NC7=O)C8=O)C6)C5)cc4C(F)(F)F)C3=O)c2)COC1 (stereo not shown) [Example 120, 2-(2,6-dioxopiperidin-3-yl)-5-[3-({1-[2-(3-{3-[(4-methyl-4H-1,2,4-triazol-3-yl)methyl]oxetan-3-yl}phenyl)-3-oxo-7-(trifluoromethyl)-2,3-dihydro-1H-isoindol-5-yl]azetidin-3-yl}methyl)azetidin-1-yl]-2,3-dihydro-1H-isoindole-1,3-dione]
6 | – | – | > 500 | CC1c2nc(N3CCC(CN4CCN(CC5CCN(Cc6cc7c(c(C(F)(F)F)c6)CN(c6cccc([C@]8(Cc9nncn9C)C[C@@H](C#N)C8)c6)C7=O)CC5)C(C)(C)C4)CC3)ccc2C(=O)N1C1CCC(=O)NC1=O (stereo partly shown) [Example 287, (1r,3r)-3-(3-{6-[(4-{[4-({1-[6-(2,6-dioxopiperidin-3-yl)-7-methyl-5-oxo-5H,6H,7H-pyrrolo[3,4-b]pyridin-2-yl]piperidin-4-yl}methyl)-2,2-dimethylpiperazin-1-yl]methyl}piperidin-1-yl)methyl]-1-oxo-4-(trifluoromethyl)-2,3-dihydro-1H-isoindol-2-yl}phenyl)-3-[(4-methyl-4H-1,2,4-triazol-3-yl)methyl]cyclobutane-1-carbonitrile]
7 | – | – | > 500 | CC(C)n1c(=O)n(C2CCC(=O)NC2=O)c2cccc(N3CCC(CN4CCN(C[C@H]5CCCN(Cc6cc7c(c(C(F)(F)F)c6)CN(c6cccc(C8(Cc9nncn9C)CC(C#N)C8)c6)C7=O)C5)C(C)(C)C4)CC3)c21 (stereo partly drawn) [Example 288, (1r*,3r*)-3-[3-(6-{[(3S)-3-{[4-({1-[1-(2,6-dioxopiperidin-3-yl)-2-oxo-3-(propan-2-yl)-2,3-dihydro-1H-1,3-benzodiazol-4-yl]piperidin-4-yl}methyl)-2,2-dimethylpiperazin-1-yl]methyl}piperidin-1-yl]methyl}-1-oxo-4-(trifluoromethyl)-2,3-dihydro-1H-isoindol-2-yl)phenyl]-3-[(4-methyl-4H-1,2,4-triazol-3-yl)methyl]cyclobutane-1-carbonitrile]
8 | – | – | > 500 | CC(C)n1c(=O)n(C2CCC(=O)NC2=O)c2ccc(N3CCN(Cc4ccc(-c5cc6c(c(C(F)(F)F)c5)CN(c5cccc([C@]7(Cc8nncn8C)C[C@@H](C#N)C7)c5)C6=O)cc4)CC3)cc21 (stereo partly shown) [Example 295, (1r,3r)-3-(3-{6-[4-({4-[1-(2,6-dioxopiperidin-3-yl)-2-oxo-3-(propan-2-yl)-2,3-dihydro-1H-1,3-benzodiazol-5-yl]piperazin-1-yl}methyl)phenyl]-1-oxo-4-(trifluoromethyl)-2,3-dihydro-1H-isoindol-2-yl}phenyl)-3-[(4-methyl-4H-1,2,4-triazol-3-yl)methyl]cyclobutane-1-carbonitrile]
9 | – | – | > 500 | Cn1cnnc1CC1(c2cccc(-n3cc4c(C(F)(F)F)cc(CN5CCC[C@H](CN6CCC[C@@H](OC7CCN(c8ccc9c(c8F)CN(C8CCC(=O)NC8=O)C9=O)CC7)C6)C5)cc4n3)c2)COC1 (stereo partly drawn) [Example 297, 3-[4-fluoro-5-(4-{[(3R)-1-{[(3S)-1-{[2-(3-{3-[(4-methyl-4H-1,2,4-triazol-3-yl)methyl]oxetan-3-yl}phenyl)-4-(trifluoromethyl)-2H-indazol-6-yl]methyl}piperidin-3-yl]methyl}piperidin-3-yl]oxy}piperidin-1-yl)-1-oxo-2,3-dihydro-1H-isoindol-2-yl]piperidine-2,6-dione]
10 | – | – | > 500 | Cn1cnnc1CC1(c2cccc(-n3cc4c(C(F)(F)F)cc(CN5CCC[C@@H](CN6CCC(CN7CCN(c8ccc9c(c8F)CN(C8CCC(=O)NC8=O)C9=O)CC7)CC6)C5)cc4n3)c2)COC1 (stereo partly drawn) [Example 298, 3-(4-fluoro-5-{4-[(1-{[(3S)-1-{[2-(3-{3-[(4-methyl-4H-1,2,4-triazol-3-yl)methyl]oxetan-3-yl}phenyl)-4-(trifluoromethyl)-2H-indazol-6-yl]methyl}piperidin-3-yl]methyl}piperidin-4-yl)methyl]piperazin-1-yl}-1-oxo-2,3-dihydro-1H-isoindol-2-yl)piperidine-2,6-dione]
11 | – | – | > 500 | Cn1cnnc1CC1(c2cccc(-n3cc4c(C(F)(F)F)cc(CN5CCC(CN6CCC(CN7CCN(c8ccc9c(c8F)CN(C8CCC(=O)NC8=O)C9=O)CC7)CC6)CC5)cc4n3)c2)COC1 (stereo not shown) [Example 299, 3-{4-fluoro-5-[4-({1-[(1-{[2-(3-{3-[(4-methyl-4H-1,2,4-triazol-3-yl)methyl]oxetan-3-yl}phenyl)-4-(trifluoromethyl)-2H-indazol-6-yl]methyl}piperidin-4-yl)methyl]piperidin-4-yl}methyl)piperazin-1-yl]-1-oxo-2,3-dihydro-1H-isoindol-2-yl}piperidine-2,6-dione]
